Earlier results as cited in publication PMC2923200, “Identification of a Cardiac Specific Protein Transduction Domain by In Vivo Biopanning Using a M13 Phage Peptide Display Library in Mice” (PLoS ONE, 2010).

Conditions: in vitro phage display screening by other investigators
Description: However, it is unclear how the ability of CTP to interact with these cellular components in vitro facilitates transduction of cardiac specific tissue in vivo. We currently are examining whether the transduction process is energy independent as well as whether it involves endocytosis. Also, the s ...

APWHLSSQYSRT [CTP]
affinity for binding to apatite-based, bone-like minerals: high affinity | affinity for binding to two specific sulfated carbohydrates: high affinity
